Laboratory results as given in patent US8435744B2 (priority 2005, dated 2013).

Biological target: PrP^C from uninfected N2a58 cells (Mus musculus, UniProt P04925)
Format: cell-based, murine
Settings: normal N2a58 cells, 3 days, 5 to 20 μM, before and after PK, FIG. 5

Chain of PrP^C from uninfected N2a58 cells (P04925 23-230 limits assumed): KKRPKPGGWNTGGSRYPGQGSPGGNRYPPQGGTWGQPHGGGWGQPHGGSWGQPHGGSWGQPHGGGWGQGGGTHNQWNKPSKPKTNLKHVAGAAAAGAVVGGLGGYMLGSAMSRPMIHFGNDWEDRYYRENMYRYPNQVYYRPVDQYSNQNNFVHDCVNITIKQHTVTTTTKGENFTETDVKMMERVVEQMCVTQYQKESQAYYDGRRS

## CSc1nccc(-c2ccc(Br)s2)n1 [compound A, 4-(5-bromo-2-thienyl)-2-(methylthio)pyrimidine]
  oligomeric forms of normal PrP or bands resistant to proteinase K digestion: does not make it possible to demonstrate oligomeric forms of the normal prion protein, PrP nor the appearance of bands resistant to proteinase K digestion
